Data published in US20230167088A1, “1-PYRAZINYLPYRAZOLYL-3-OXYALKYL ACIDS AND THEIR DERIVATIVES, AND THEIR USE FOR CONTROL OF UNDESIRED PLANT GROWTH” (BAYER AKTIENGESELLSCHAFT, priority 2020, published 2023).

Experiments:
[1] = test system: VERPE; test: Herbicidal pre-emergence action 2a (greenhouse pots, visual scoring); type: in vivo, Veronica persica; settings: dosage 320 g/ha, visual scoring after about 3 weeks vs untreated controls
In short: (§1)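 Weed and crop seeds placed in pots and covered with soil; aqueous suspension or emulsion of WP/EC formulation applied to the soil surface before emergence (600 l/ha, 0.5% additive, 320 and/or 80 g/ha). Pots kept in the greenhouse about 3 weeks; visual percentage scoring.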

[2] = test system: VERPE; test: Herbicidal post-emergence action 1a (greenhouse pots, visual rating); type: in vivo, Veronica persica; settings: visual rating about 3 weeks after treatment
In short: (§2)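 Weeds and crops sown in sandy loam in greenhouse pots were sprayed post-emergence at the one-leaf stage (2–3 weeks after sowing) with WP or EC formulations plus 0.5% additive at 600 l/ha water, 320 and/or 80 g/ha. About 3 weeks later damage was rated visually against untreated controls (0% = no effect, 100% = dead).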

[3] = test system: ECHCG; test: Herbicidal pre-emergence action 2a (greenhouse pots, visual scoring); type: in vivo, Echinochloa crus-galli; settings: dosage 320 g/ha, visual scoring after about 3 weeks
In short: as §1

[4] = test system: harmful plants; test: Herbicidal pre-emergence action 2a, summary across species; type: in vivo; settings: Tables B1 to B15 (320 g/ha and/or 80 g/ha)
Description: a) Seeds of monocotyledonous and dicotyledonous weed plants and crop plants are placed in plastic or organic plant pots and covered with soil. The compounds of the invention, formulated in the form of wettable powders (WP) or as emulsion concentrates (EC), are then applied onto the surface of the covering soil as aqueous suspension or emulsion with addition of 0.5% additive at a water application rate of 600 1/ha (converted). After the treatment, the pots are placed in a greenhouse and kept under good growth conditions for the trial plants. After about 3 weeks, the effect of the preparations is scored visually in comparison with untreated controls as percentages. For example, 100% activity=the plants have died, 0% activity=like control plants.
Tables B1 to B15 below show the effects of selected compounds of the general formula (I) according to Tables 1 and 2 on various harmful plants and an application rate corresponding to 320 g/ha and/or 80 g/ha, which were obtained by the experimental procedure mentioned above.
For example, compound nos. I-07, I-08, I-11, I-12, I-13, I-16, I-17, I-20, I-36, I-37, I-39, I-45, I-46, I-48, I-52 and I-53 in the pre-emergence method have very good action (80% to 100% herbicidal activity) against harmful plants such as Alopecurus myosuroides, Amaranthus retroflexus, Digitaria sanguinalis, Lolium rigidum, Polygonum convolvulus, Setaria viridis, Veronica persica and Viola tricolor at an application rate of 0.32 kg of active substance per hectare.

[5] = test system: POAAN; test: Herbicidal pre-emergence action 2b (doubly sown, 1280 g/ha); type: in vivo, Poa annua; settings: doubly sown pots, dosage 1280 g/ha, visual scoring after about 3 weeks
In short: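 Read-out: visual percentage damage relative to untreated controls, scored after roughly 3 weeks in the greenhouse, where 100% means plants died and 0% equals control. Seeds were sown two species per pot in sandy loam and covered before the compounds, formulated as WP or EC with 0.5% additive, were sprayed onto the soil at 600 L/ha.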

[6] = test system: AMARE; test: Herbicidal post-emergence action 1a (greenhouse pots, visual rating); type: in vivo, Amaranthus retroflexus; settings: visual rating about 3 weeks after treatment
In short: as §2

[7] = test system: STEME; test: Herbicidal post-emergence action 1b (twin sowing, 1280 g/ha); type: in vivo, Stellaria media; settings: dosage 1280 g/ha, visual rating about 3 weeks after treatment
In short: (§3)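 Sow paired weed species in sandy loam pots and grow in the greenhouse; at the one-leaf stage (2–3 weeks) spray green parts with compound suspension or emulsion containing 0.5% additive at 600 L water/ha; keep about 3 weeks, then score damage visually relative to untreated plants.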

[8] = test system: LOLRI; test: Herbicidal post-emergence action 1a (greenhouse pots, visual rating); type: in vivo, Lolium rigidum; settings: rated visually about 3 weeks after treatment, 100% = plants have died, 0% = like control plants
In short: as §2

[9] = test system: MATIN; test: Herbicidal pre-emergence action 2a (greenhouse pots, visual scoring); type: in vivo, Matricaria inodora; settings: dosage 320 g/ha, visual scoring after about 3 weeks vs untreated controls
In short: as §1

[10] = test system: MATIN; test: Herbicidal post-emergence action 1a (greenhouse pots, visual rating); type: in vivo, Matricaria inodora; settings: visual rating about 3 weeks after treatment
In short: as §2

[11] = test system: MATIN; test: Herbicidal post-emergence action 1b (twin sowing, 1280 g/ha); type: in vivo, Matricaria inodora; settings: dosage 1280 g/ha, visual rating about 3 weeks after treatment
In short: as §3

SMILES	Pre-emergence action against VERPE in % [1]	Post-emergence action against VERPE in % ([2]; dosage 80 g/ha)	Post-emergence action against VERPE in % ([2]; dosage 320 g/ha)	Pre-emergence action against ECHCG in % [3]	herbicidal efficacy against harmful plants in the case of pre-emergence treatment (in words) [4]	Pre-emergence action at 1280 g/ha against POAAN in % [5]	Post-emergence action against AMARE in % ([6]; dosage 320 g/ha)	Post-emergence action at 1280 g/ha against STEME in % [7]	Post-emergence action against LOLRI in % ([8]; Dosage 320 g/ha)	Pre-emergence action against MATIN in % [9]	Post-emergence action against MATIN in % ([10]; dosage 80 g/ha)	Post-emergence action against MATIN in % ([10]; dosage 320 g/ha)	Post-emergence action against AMARE in % ([6]; dosage 80 g/ha)	Post-emergence action at 1280 g/ha against MATIN in % [11]	Post-emergence action against LOLRI in % ([8]; Dosage 80 g/ha)
COC(=O)C(C)Oc1nn(-c2cnccn2)c(-c2ccnc(F)c2)c1Cl (racemic) [Example I-05]	100%	80%	90%	90%	good herbicidal efficacy	100%	80%	90%	90%	–	–	–	–	–	–
COC(=O)C(C)Oc1nn(-c2cnccn2)c(-c2cncc(F)c2)c1Br (racemic) [Example I-08]	100%	90%	90%	100%	good herbicidal efficacy	–	80%	–	90%	90%	80%	90%	–	–	–
COC(=O)C(C)Oc1nn(-c2cnccn2)c(-c2ccnc(F)c2)c1Br (racemic) [Example I-10]	–	80%	90%	–	–	100%	80%	90%	90%	–	–	–	–	–	–
COC(=O)C(C)Oc1nn(-c2cnccn2)c(-c2ccc(F)nc2)c1Br (racemic) [Example I-12]	80%	80%	90%	–	good herbicidal efficacy	100%	80%	100%	90%	–	–	80%	80%	90%	–
COC(=O)C(C)Oc1nn(-c2cnccn2)c(-c2ccc(F)c(F)c2)c1Br (racemic) [Example I-16]	100%	–	80%	–	good herbicidal efficacy	100%	90%	100%	90%	90%	–	80%	–	90%	–
COC(=O)C(C)Oc1nn(-c2cnccn2)c(-c2ccc(F)c(F)c2)c1C#N (racemic) [Example I-22]	–	80%	90%	–	good herbicidal efficacy	100%	90%	100%	100%	–	–	80%	90%	90%	80%
COC(=O)COc1nn(-c2cnccn2)c(-c2cncc(F)c2)c1Br [Example I-07]	100%	90%	90%	100%	good herbicidal efficacy	–	80%	–	90%	90%	90%	90%	–	–	80%
COC(=O)COc1nn(-c2cnccn2)c(-c2ccc(F)nc2)c1Br [Example I-11]	90%	90%	90%	–	good herbicidal efficacy	100%	90%	90%	–	90%	–	80%	90%	–	–
COC(=O)COc1nn(-c2cnccn2)c(-c2ccc(F)c(F)c2)c1Br [Example I-15]	100%	90%	90%	100%	good herbicidal efficacy	–	80%	–	90%	100%	–	80%	80%	–	90%
COC(=O)[C@@H](C)Oc1nn(-c2cnccn2)c(-c2ccnc(F)c2)c1Br [Example I-34]	–	–	80%	80%	good herbicidal efficacy	100%	80%	100%	80%	–	–	90%	–	90%	–
COC(=O)[C@@H](C)Oc1nn(-c2cnccn2)c(-c2cncc(F)c2)c1C#N [Example I-40]	–	–	80%	–	–	100%	90%	100%	80%	–	–	–	80%	100%	–
COC(=O)[C@@H](C)Oc1nn(-c2cnccn2)c(-c2ccc(F)c(F)c2)c1Br [Example I-45]	80%	–	80%	–	good herbicidal efficacy	100%	90%	100%	90%	100%	–	80%	–	–	90%
CCOC(=O)COc1nn(-c2cnccn2)c(-c2ccc(F)nc2)c1Br [Example I-52, ethyl {[4-bromo-5-(6-fluoropyridin-3-yl)-1-(pyrazin-2-yl)-1H-pyrazol-3-yl]oxy}acetate]	90%	–	90%	–	good herbicidal efficacy	100%	80%	–	–	90%	–	–	90%	90%	–
